In patent US8673938B2, “Chemical compounds” (priority 2006, dated 2014) one finds IC50 and inhibition data, which are given here for 33 molecules.

Molecules are shown by their SMILES.

One assay deals with human 11βHSD1 enzyme (Homo sapiens (Human), UniProt P28845). Briefly: biochemical.
human 11βHSD1 enzyme, sequence (P28845 whole entry): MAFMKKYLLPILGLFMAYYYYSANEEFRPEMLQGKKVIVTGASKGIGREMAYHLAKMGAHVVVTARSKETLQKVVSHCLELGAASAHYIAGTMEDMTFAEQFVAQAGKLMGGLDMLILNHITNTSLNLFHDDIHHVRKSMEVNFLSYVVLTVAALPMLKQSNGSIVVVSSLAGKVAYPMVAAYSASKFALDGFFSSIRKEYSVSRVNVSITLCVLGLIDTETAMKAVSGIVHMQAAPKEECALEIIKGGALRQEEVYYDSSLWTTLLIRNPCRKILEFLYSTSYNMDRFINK
Conditions: not given
Consider `O=C(O)C[C@@H]1CCCN(c2ccc(C(=O)NC34CC5CC(CC(C5)C3)C4)cn2)C1` [{(3S)-1-[5-(adamantan-1-ylcarbamoyl)pyridin-2-yl]piperidin-3-yl}acetic acid, reference compound], for which the IC50 is above 30 µM.

The assay is the same for the next values; noted with them: read-out: % inhibition of human 11-βHSD.
For `CCCSc1nc(N2CCC[C@@H](CC(=O)O)C2)c(F)cc1C(=O)NC1CCCCC1` [Example 186, (S)-2-(1-(5-(Cyclohexylcarbamoyl)-3-fluoro-6-(propylthio)pyridin-2-yl)piperidin-3-yl)acetic acid], the inhibition at 30 µM was found to be 104%. Same read-out and setting: with `CC(C)(O)C1CCCN(C(=O)c2ccc(N3CCC[C@@H](CC(=O)O)C3)nc2SC2CCCC2)C1` (stereo partly drawn) [Example 128, 2-[(3S)-1-[6-cyclopentylsulfanyl-5-[3-(2-hydroxypropan-2-yl)piperidine-1-carbonyl]pyridin-2-yl]-3-piperidyl]acetic acid] the figure was 91%; with `CCCSc1nc(N2CC[C@@H](CC(=O)O)C2)ccc1C(=O)NC1C2CC3CC1CC(O)(C3)C2` (stereo partly drawn) [Example 79, 2-[(3S)-1-[5-[((2r,5s)-5-hydroxy-2-adamantyl)carbamoyl]-6-propylsulfanyl-pyridin-2-yl]pyrrolidin-3-yl]acetic acid], 90%. In the case of `CCCSc1nc(N2CCC[C@@H](CC(=O)O)C2)ccc1C(=O)N(C)C1CCOCC1` [Example 174, [(3S)-1-{5-[Methyl(tetrahydro-2H-pyran-4-yl)carbamoyl]-6-(propylthio)pyridin-2-yl}piperidin-3-yl]acetic acid], the inhibition at 30 µM was found to be 92%. With `O=C(O)CO[C@@H]1CCN(c2ccc(C(=O)NC3C4CC5CC(C4)CC3C5)c(SC3CCCC3)n2)C1` (stereo partly drawn) [Example 70, 2-[(3R)-1-[5-(2-adamantylcarbamoyl)-6-cyclopentylsulfanyl-pyridin-2-yl]pyrrolidin-3-yl]oxyacetic acid], the inhibition at 30 µM worked out at 95%. On the same count and under the same terms, with `CCCSc1nc(N2CCC[C@@H](CC(=O)O)C2)ccc1C(=O)N1CCC(C(F)(F)F)CC1` [Example 119, 2-[(3S)-1-[6-propylsulfanyl-5-[4-(trilfuoromethyl)piperidine-1-carbonyl]pyridin-2-yl]-3-piperidyl]acetic acid] the figure was 99%. For the molecule `CCCSc1nc(N2CCC[C@@H](CC(=O)O)C2)ccc1C(=O)N1CCCCC1` [Example 115, 2-[(3S)-1-[5-(piperidine-1-carbonyl)-6-propylsulfanyl-pyridin-2-yl]-3-piperidyl]acetic acid], the inhibition at 30 µM was 93%. Still for that read-out and setting: as for `CCCSc1nc(N2CC[C@H](CC(=O)O)C2)ccc1C(=O)N[C@H]1C2CC3CC1C[C@](OC(F)F)(C3)C2` [Example 184, 2-[(3R)-1-[5-[[(2r,5s)-5-(difluoromethoxy)-2-adamantyl]carbamoyl]-6-propylsulfanyl-pyridin-2-yl]pyrrolidin-3-yl]acetic acid], the figure is 94%; as for `CCCSc1nc(N[C@H]2C3CC4CC2C[C@@](C(=O)O)(C4)C3)ccc1C(=O)NC1CCCCC1` [Example 10, (3R,5S)-4-[[5-(cyclohexylcarbamoyl)-6-propylsulfanyl-pyridin-2-yl]amino]adamantane-1-carboxylic acid], 88%. Still for that read-out and setting: as for `CCCSc1nc(N2CCC[C@H](CC(=O)O)C2)c(F)cc1C(=O)NC1CCCCC1` [Example 187, (R)-2-(1-(5-(Cyclohexylcarbamoyl)-3-fluoro-6-(propylthio)pyridin-2-yl)piperidin-3-yl)acetic acid], the figure is 90%; as for `O=C(O)C[C@@H]1CCCN(c2ccc(C(=O)NC3CCCCC3)c(SCCc3ccccc3)n2)C1` [Example 130, 2-[(3S)-1-[5-(cyclohexylcarbamoyl)-6-phenethylsulfanyl-pyridin-2-yl]-3-piperidyl]acetic acid], 91%.

On to `O=C(O)C[C@@H]1CCCN(c2ccc(C(=O)NC3CCCCC3)c(OCCCc3ccccc3)n2)C1` [compound 137, 2-[(3S)-1-[5-(cyclohexyl-carbamoyl)-6-(3-phenylpropoxy)pyridin-2-yl]-3-piperidyl] acetic acid], for which the inhibition at 30 µM came out at 99%. `CCCSc1nc(N2CC[C@@H](C(=O)O)C2)ccc1C(=O)NC1C2CC3CC(C2)CC1C3` (stereo partly drawn) [Example 63, (3R)-1-[5-(2-adamantylcarbamoyl)-6-propylsulfanyl-pyridin-2-yl]pyrrolidine-3-carboxylic acid]: the inhibition at 30 µM is 91%. On the same count and under the same terms, as for `CCCSc1nc(N2CC[C@H](C(=O)O)C2)ccc1C(=O)NC1C2CC3CC(C2)CC1C3` (stereo partly drawn) [Example 67, (3S)-1-[5-(2-adamantylcarbamoyl)-6-propylsulfanyl-pyridin-2-yl]pyrrolidine-3-carboxylic acid], the figure is 88%; as for `CCCSc1nc(N2CCCC(OCC(=O)O)C2)ccc1C(=O)NC1CCCCC1` (stereo not drawn) [Example 46], 83%. The same measure, in the same setting: as for `CCCSc1nc(N2CCCC(C3(C(=O)O)CCC3)C2)ccc1C(=O)NC1CCCCC1` (stereo not drawn) [Example 41, 1-[1-[5-(cyclohexylcarbamoyl)-6-propylsulfanyl-pyridin-2-yl]-3-piperidyl]cyclobutane-1-carboxylic acid], the figure is 82%; as for `CCCSc1nc(N2CCC[C@@H](CC(=O)O)C2)ccc1C(=O)N(C)C1CCCCC1` [compound 169, 2-[(3S)-1-[5-(cyclohexyl-methyl-carbamoyl)-6-propylsulfanyl-pyridin-2-yl]-3-piperidyl]acetic acid], 100%; as for `CCCSc1nc(Sc2cccc(C(=O)O)c2)ccc1C(=O)NC1CCCCC1` [Example 14, 3-[5-(cyclohexylcarbamoyl)-6-propylsulfanyl-pyridin2-yl]sulfanylbenzoic acid], 78%.

Regarding `CCS(=O)(=O)N1CCN(c2nc(N3CCC[C@@H](CC(=O)O)C3)ccc2C(=O)NC2CCCCC2)CC1` [compound 148, 2-[(3S)-1-[5-(cyclohexyl-carbamoyl)-6-(4-ethylsulfonyl-piperazin-1-yl)pyridin-2-yl]-3-piperidyl]acetic acid], the inhibition at 30 µM was found to be 56%. As to `CCCSc1nc(N2CCC(C(C)(C)C(=O)O)CC2)ccc1C(=O)NC1CCCCC1` [Example 48, 2-[1-[5-(cyclohexylcarbamoyl)-6-propylsulfanyl-pyridin-2-yl]-4-piperidyl]-2-methyl-propanoic acid], the inhibition at 30 µM worked out at 75%.

On to `CCCSc1nc(N2CCCC(CC(=O)O)C2)ccc1C(=O)NC1CCCCC1` (stereo not drawn) [Example 5, 2-[1-[5-(cyclohexylcarbamoyl)-6-propylsulfanyl-pyridin-2-yl]-3-piperidyl]acetic acid], for which the inhibition at 30 µM is 86%. Still for that read-out and setting: with `O=C(O)C[C@@H]1CCCN(c2ccc(C(=O)NC3CCCCC3)c(N3CCC(c4ccc(F)cc4)C3)n2)C1` (stereo partly drawn) [compound 143, 2-[(3S)-1-[5-(cyclohexylcarbamoyl)-6-[3-(4-fluorophenyl)pyrrolidin-1-yl]pyridin-2-yl]-3-piperidyl]acetic acid] the figure was 95%. As to `O=C(O)C[C@@H]1CCCN(c2ccc(C(=O)NC3CCCCC3)c(N3CCN(S(=O)(=O)c4ccccc4)CC3)n2)C1` [compound 149, 2-[(3S)-1-[6-[4-(benzenesulfonyl)piperazin-1-yl]-5-(cyclohexyl-carbamoyl)pyridin-2-yl]-3-piperidyl]acetic acid], the inhibition at 30 µM was 83%. In the case of `O=C(O)C[C@@H]1CCCN(c2ccc(C(=O)N[C@H]3C4CC5CC3C[C@](OC(F)F)(C5)C4)c(SC3CCCCC3)n2)C1` [Example 176, 2-[(3S)-1-[6-Cyclohexylsulfanyl-5-[[(2r,5s)-5-(difluoromethoxy)-2-adamantyl]carbamoyl]pyridin-2-yl]-3-piperidyl]acetic acid], the inhibition at 30 µM worked out at 92%. For `O=C(N[C@H]1C2CC3CC1C[C@](OC(F)F)(C3)C2)c1ccc(N2CC[C@@H](C(=O)O)C2)nc1SC1CCCC1` [Example 182, (3R)-1-[6-cyclopentylsulfanyl-5-[[(2r,5s)-5-(difluoromethoxy)-2-adamantyl]carbamoyl]pyridin-2-yl]pyrrolidine-3-carboxylic acid], the inhibition at 30 µM was found to be 91%. For the molecule `CCCCc1nc(N2CC3C(C2)C3C(=O)O)ccc1C(=O)NC1C2CC3CC(C2)CC1C3` (stereo not drawn) [Example 163, 3-[5-(2-adamantylcarbamoyl)-6-butyl-pyridin-2-yl]-3-azabicyclo[3.1.0]hexane-6-carboxylic acid], the inhibition at 30 µM was 93%. Regarding `CC(C)CCSc1nc(N2C[C@@H]3[C@H](C2)[C@H]3C(=O)O)ccc1C(=O)N[C@H]1C2CC3CC1C[C@@](O)(C3)C2` [Example 106, (1R,5S)-3-[5-[((2r,5s)-5-hydroxy-2-adamantyl)carbamoyl]-6-(3-methylbutylsulfanyl)pyridin-2-yl]-3-azabicyclo[3.1.0]hexane-6-carboxylic acid], the inhibition at 30 µM stood at 95%. On the same count and under the same terms, as for `O=C(O)C[C@@H]1CCCN(c2ccc(C(=O)NC3CCCCC3)c(OCCc3ccc(F)cc3)n2)C1` [compound 135, 2-[(3S)-1-[5-(cyclohexyl-carbamoyl)-6-[2-(4-fluorophenyl)ethoxy]pyridin-2-yl]-3-piperidyl] acetic acid], the figure is 92%. Consider `O=C(O)C[C@@H]1CCCN(c2ccc(C(=O)NC3CCCCC3)c(N3CCN(C(=O)c4ccc(F)cc4)CC3)n2)C1` [compound 146, 2-[(3S)-1-[5-(cyclohexyl-carbamoyl)-6-[4-(4-fluorobenzoyl)piperazin-1-yl]pyridin-2-yl]-3-piperidyl]acetic acid], for which the inhibition at 30 µM was 58%. On the same count and under the same terms, as for `CCCSc1nc(N2CCC[C@@H](CC(=O)O)C2)ccc1C(=O)N[C@H]1C2CC3CC1C[C@@](O)(C3)C2` [Example 83], the figure is 87%. Take `O=C(N[C@H]1C2CC3CC1C[C@](O)(C3)C2)c1ccc(N2CC[C@@H](C(=O)O)C2)nc1SC1CCCC1` [Example 96, (3R)-1-[6-cyclopentylsulfanyl-5-[((2r,5s)-5-hydroxy-2-adamantyl)carbamoyl]pyridin-2-yl]pyrrolidine-3-carboxylic acid]: the inhibition at 30 µM worked out at 88%. On the same count and under the same terms, with `CCCSc1nc(Oc2cccc(CC(=O)O)c2)ccc1C(=O)NC1CCCCC1` [Example 23, 2-[3-[5-(cyclohexylcarbamoyl)-6-propylsulfanyl-pyridin-2-yl]oxyphenyl]acetic acid] the figure was 78%.
